# Measurements from the supplement of paper PMC10307832.
# Experiments:
# Test in all cases: relative viability (nuclei count vs DMSO), 5 days (fraction); higher = more cells survive
# [1] = compound: Cc1ccc(C(=O)Nc2cccc(C(F)(F)F)c2)cc1Nc1cncc(C(N)=O)c1 [ALW-II-49-7] + NC(=O)Nc1cc(-c2cccc(F)c2)sc1C(=O)N[C@H]1CCCNC1 [AZD7762] (partner 0.2 µM)
# Outline: (§1)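 Relative viability equals treated-well nuclei counts divided by vehicle-well nuclei counts. Counts came from 4× images of lung cancer cell lines grown in 1536-well plates for 5 days after pin-tool dosing on the day after seeding. Dosing used one drug alone or a fixed anchor-drug dose plus five library-drug doses (not always all listed) in √10 steps, and values are medians of duplicate plates.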
# [2] = compound: Cc1ccc(C(=O)Nc2cccc(C(F)(F)F)c2)cc1Nc1cncc(C(N)=O)c1 [ALW-II-49-7] + Nc1ncn([C@H]2C[C@H](O)[C@@H](CO)O2)c(=O)n1 [Decitabine] (partner 2 µM)
# Outline: as §1
# [3] = compound: Cc1ccc(C(=O)Nc2cccc(C(F)(F)F)c2)cc1Nc1cncc(C(N)=O)c1 [ALW-II-49-7] + Cc1nc(Nc2ncc(C(=O)Nc3c(C)cccc3Cl)s2)cc(N2CCN(CCO)CC2)n1 [Dasatinib] (partner 0.075 µM)
# Outline: as §1
# [4] = compound: Cc1nc(Nc2ncc(C(=O)Nc3c(C)cccc3Cl)s2)cc(N2CCN(CCO)CC2)n1 [Dasatinib] + CC(=O)Nc1cccc(-n2c(=O)n(C3CC3)c(=O)c3c(Nc4ccc(I)cc4F)n(C)c(=O)c(C)c32)c1 [Trametinib] (partner 0.02 µM)
# Outline: as §1
Cell Line,relative viability ([1]; first compound 0.08 µM),relative viability ([1]; first compound 0.253 µM),relative viability ([1]; first compound 0.8 µM),relative viability ([1]; first compound 2.53 µM),relative viability ([1]; first compound 8 µM),relative viability ([2]; first compound 0.08 µM),relative viability ([2]; first compound 0.253 µM),relative viability ([2]; first compound 0.8 µM),relative viability ([2]; first compound 2.53 µM),relative viability ([2]; first compound 8 µM),relative viability ([3]; first compound 0.08 µM),relative viability ([3]; first compound 0.253 µM),relative viability ([3]; first compound 0.8 µM),relative viability ([3]; first compound 2.53 µM),relative viability ([3]; first compound 8 µM),relative viability ([4]; first compound 0.005 µM),relative viability ([4]; first compound 0.01581 µM),relative viability ([4]; first compound 0.05 µM),relative viability ([4]; first compound 0.1581 µM),relative viability ([4]; first compound 0.5 µM)
NCI-H2126,0.981,1.05,0.913,1,0.984,0.604,0.562,0.545,0.587,0.592,0.534,0.638,0.586,0.52,0.457,0.641,0.425,0.551,0.424,0.309
NCI-H2170,1.03,0.775,0.833,0.835,0.817,0.542,0.478,0.5,0.464,0.468,0.725,0.531,0.608,0.512,0.614,0.929,0.828,0.834,0.651,0.365
NCI-H2342,0.506,0.498,0.419,0.408,0.484,0.714,0.767,0.697,0.693,0.783,0.303,0.299,0.327,0.3,0.314,0.662,0.722,0.774,0.515,0.294
NCI-H2347,1.02,0.727,0.606,0.676,0.638,0.714,0.647,0.57,0.718,0.681,0.264,0.302,0.301,0.34,0.356,0.25,0.277,0.221,0.157,0.164
NCI-H2405,0.746,0.808,0.553,0.645,0.485,0.699,0.751,0.75,0.685,0.722,0.207,0.216,0.219,0.208,0.173,0.431,0.365,0.351,0.272,0.233
NCI-H3122,1.05,0.853,1.06,1.05,1.03,0.42,0.392,0.585,0.469,0.42,0.83,0.81,0.737,0.891,0.834,0.234,0.249,0.248,0.222,0.192
PC-3 [JPC-3],0.738,0.735,0.68,0.801,0.672,0.785,0.95,0.771,0.814,0.873,0.827,0.916,0.929,0.951,0.854,0.771,0.736,0.79,0.704,0.528
PC-14,0.445,0.318,0.447,–,0.236,0.247,0.22,0.218,0.266,0.222,0.202,0.3,0.242,0.227,0.192,0.882,0.642,0.743,0.418,0.0498
RERF-LC-KJ,1.15,0.995,0.827,0.975,0.956,0.694,0.783,0.729,0.732,0.611,0.827,0.815,0.951,0.665,0.741,0.855,0.784,0.765,0.668,0.658
SW 900,0.616,0.485,–,0.554,0.542,0.506,0.487,–,0.552,0.661,0.607,0.565,0.559,0.565,0.478,0.783,0.474,0.405,0.393,0.188
